Source: patent US8722727B2, “Antifungal agents” (Seynix, Inc., priority 2008, dated 2014)

Molecular target: T1, glucan synthase (GS) (Candida albicans, UniProt O13428)
T1 construct: Extraction of GS activity from membranes was performed at a protein concentration of 5 mg/mL in extraction buffer; endogenous in cells; host or cells: Candida albicans MY1055 (membrane fraction, detergent extraction, product entrapment)
Assay: Glucan synthase inhibition (polymerization assay, 96-well)
Assay type: biochemical
Conditions: glucan synthase prepared from Candida albicans MY1055; 60 min incubation at 22° C.; read-out: Candida Albicans GS IC50 (ng/mL) (converted)
Protocol: The in vitro evaluation of glucan synthase inhibitory activity of compounds was measured in a polymerization assay in 96-well format. Each well contained 100 μL of ^3H-UDPG at 0.5 mM (6000 to 8000 dpm/nmol), 50 mM HEPES pH 7.5 (Sigma), 10% w/v glycerol (Sigma), 1.5 mg/mL bovine serum albumin (Sigma A 9647. Lot 44H0190), 25 mM KF (Fisher), 1 mM EDTA (Gibco ULTRAPURE), 25 μM GTP-γ-S, enzyme sufficient to give 3 to 6 nmoles incorporation during the 60 min incubation at 22° C., and test compound added from wells in 3-fold serial dilutions in 100% DMSO (1 μL/well). The reaction was stopped by the addition of 100 μL of 20% trichloroacetic acid. Plates were chilled for a minimum of 10 min, and precipitated glucan collected by filtration on GF/C plates (Packard UNIFILTER®-96), washed with 5 cycles of water (about 1 mL/well each cycle) using a Packard FILTERMATE HARVESTER. 40 μL/well scintillation fluid (Packard ULTIMA GOLD TM-XR) was added and the sealed plates counted in a WALLAC BETA counter in top-counting mode at an efficiency of approximately 40%.
Stock solutions were stored at 10 mg/mL in DMSO at −20° C. For each new enzyme preparation, the initial titration performed started at 1 mg/mL, which was prepared by making a 10-fold dilution in DMSO (5 μL to 50 μL). 40 μL of this stock was placed in column 12 of a round-bottomed 96-well microtiter plate. 40 μL DMSO was added to columns 1 to 11 in the same row and ten 3-fold serial dilutions performed, by transferring 20 μL from column 12 to column 11 etc., with 4 mixings before each transfer. No test compound was transferred to from column 2 to column 1. Duplicate aliquots of 1 μL of all 12 dilutions were then transferred to the side walls of a 96-well Bioblock 1.1 mL plate (Fisher brand) to create two rows. Graphs of the primary data were created in PRISM software (the average of two determinations) using PRISM's curve fitting program (sigmoidal dose response non-linear regression). The amount of compound required to inhibit glucan synthase activity by 50% in this assay (IC50-ng/mL) was calculated.
Routine analysis was performed with glucan synthase (GS) prepared from Candida albicans MY1055 by the following procedure: MY1055 was grown in 10 liters YPD medium (10 g yeast extract, 20 g tryptone, 20 g glucose per liter) with vigorous shaking at 30° C., to early stationary phase. Cells were harvested by centrifugation, the pellet was washed and frozen at −70° C. until breakage. Thawed pellets were shaken with an equal volume of breakage buffer (50 mM HEPES pH 7.4, 10% glycerol, 1 mM EDTA, 1 mM PMSF, 1 mM DTT) and 4 times their weight of 0.5 mm acid washed glass beads for 2 hours at 4° C. Extent of breakage was assessed visually at 40× magnification. After low speed centrifugation to remove cell debris, the supernatant was centrifuged at 100,000×g for 60 min. to separate membranes plus ribosomes from cytoplasmic components. Membranes were further washed two additional times with breakage buffer using the same centrifugation conditions and finally suspended in breakage buffer at 25 to 30 mg/mL protein (Biorad) for storage at −70° C. Extraction of GS activity from membranes was performed at a protein concentration of 5 mg/mL in extraction buffer (50 mM NaPO4 pH 7.5, 0.1 M KCl, 0.1M Na citrate, 20% glycerol, 5 μM GTP-γ-S, 1 mM DTT, 1 mM PMSF, 3 μg/mL pepstatin) plus 0.25% W1 by gentle mixing at 4° C. for 60 min, followed by centrifugation at 100,000×g for 60 min. After centrifugation, clear supernatant was removed from a pellet consisting of a hard layer usually with small amounts of gelatinous unextracted membranes above it.
Trapping was initiated immediately by 5-fold dilution in trapping buffer (50 mM HEPES pH 7.5, 10 mM KF, 1 mM EDTA, 2 mg/mL BSA) plus 2.5 mM UDPG and 10 μM GTP-γ-S. After incubation at 25° C. for 60 to 90 minutes, glucan was harvested by low speed centrifugation (3,000×g, 10 min). […]

T1 sequence (O13428 1-1897): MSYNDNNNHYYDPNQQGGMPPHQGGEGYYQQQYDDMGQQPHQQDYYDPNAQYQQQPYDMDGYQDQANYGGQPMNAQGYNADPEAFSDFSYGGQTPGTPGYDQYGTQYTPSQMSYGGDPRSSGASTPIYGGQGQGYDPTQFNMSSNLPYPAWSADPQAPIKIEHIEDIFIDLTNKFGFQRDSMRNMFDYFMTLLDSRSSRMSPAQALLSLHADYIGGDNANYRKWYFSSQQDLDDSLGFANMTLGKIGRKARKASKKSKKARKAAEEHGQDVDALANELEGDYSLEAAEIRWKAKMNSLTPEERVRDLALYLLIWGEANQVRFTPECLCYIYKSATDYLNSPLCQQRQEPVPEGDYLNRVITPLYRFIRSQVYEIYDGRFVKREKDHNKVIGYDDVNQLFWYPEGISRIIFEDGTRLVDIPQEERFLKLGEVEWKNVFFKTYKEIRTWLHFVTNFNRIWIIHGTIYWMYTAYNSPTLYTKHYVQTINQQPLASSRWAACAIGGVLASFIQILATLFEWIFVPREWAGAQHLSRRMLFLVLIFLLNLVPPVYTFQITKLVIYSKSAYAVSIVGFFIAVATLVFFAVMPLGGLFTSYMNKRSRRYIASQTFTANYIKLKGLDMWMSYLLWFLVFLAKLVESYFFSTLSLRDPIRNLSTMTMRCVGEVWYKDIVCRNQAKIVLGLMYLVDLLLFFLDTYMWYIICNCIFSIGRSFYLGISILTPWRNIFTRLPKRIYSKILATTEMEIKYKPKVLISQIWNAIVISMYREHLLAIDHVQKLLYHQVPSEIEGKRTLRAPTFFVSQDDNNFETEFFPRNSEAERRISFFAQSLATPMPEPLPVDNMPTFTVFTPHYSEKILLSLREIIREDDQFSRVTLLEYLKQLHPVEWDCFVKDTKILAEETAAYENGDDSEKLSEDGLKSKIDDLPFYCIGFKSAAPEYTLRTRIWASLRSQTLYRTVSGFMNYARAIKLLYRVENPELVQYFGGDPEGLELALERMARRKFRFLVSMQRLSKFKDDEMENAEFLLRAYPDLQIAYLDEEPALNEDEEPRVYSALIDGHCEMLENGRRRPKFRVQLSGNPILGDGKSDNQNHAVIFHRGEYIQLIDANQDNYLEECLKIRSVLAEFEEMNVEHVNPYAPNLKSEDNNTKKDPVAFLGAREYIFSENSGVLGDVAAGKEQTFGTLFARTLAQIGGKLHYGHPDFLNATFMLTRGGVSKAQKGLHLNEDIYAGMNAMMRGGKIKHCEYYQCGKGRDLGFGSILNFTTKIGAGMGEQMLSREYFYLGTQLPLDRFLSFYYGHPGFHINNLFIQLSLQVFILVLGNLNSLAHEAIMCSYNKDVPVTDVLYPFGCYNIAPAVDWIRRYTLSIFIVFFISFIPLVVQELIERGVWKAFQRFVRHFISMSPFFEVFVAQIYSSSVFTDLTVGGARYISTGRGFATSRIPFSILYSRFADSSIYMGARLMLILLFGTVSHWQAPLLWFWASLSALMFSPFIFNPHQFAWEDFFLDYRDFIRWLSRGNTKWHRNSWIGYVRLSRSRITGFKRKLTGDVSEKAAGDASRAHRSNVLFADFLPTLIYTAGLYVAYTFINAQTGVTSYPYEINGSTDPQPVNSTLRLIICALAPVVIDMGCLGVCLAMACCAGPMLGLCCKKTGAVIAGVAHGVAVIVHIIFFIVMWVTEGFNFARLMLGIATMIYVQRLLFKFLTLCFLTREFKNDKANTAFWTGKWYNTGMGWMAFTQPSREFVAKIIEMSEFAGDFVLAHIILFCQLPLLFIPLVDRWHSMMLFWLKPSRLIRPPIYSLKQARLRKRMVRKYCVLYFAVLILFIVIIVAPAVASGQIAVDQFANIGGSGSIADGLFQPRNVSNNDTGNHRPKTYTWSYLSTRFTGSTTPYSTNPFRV
T1 sequence (O42825 1-195 partner limits assumed): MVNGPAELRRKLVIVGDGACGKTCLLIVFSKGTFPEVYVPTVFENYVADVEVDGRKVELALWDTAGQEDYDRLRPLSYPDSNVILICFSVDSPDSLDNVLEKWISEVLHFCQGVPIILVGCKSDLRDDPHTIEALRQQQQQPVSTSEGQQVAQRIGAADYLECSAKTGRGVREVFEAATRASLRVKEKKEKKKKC

Compound | IC50 [nM]
CC(C)[C@@H](C)[C@@]1(C)CC[C@]2(C)[C@H]3CC[C@@H]4[C@@]5(COC[C@@]4(C)[C@@H](OC[C@@](C)(C(C)C)N(C)C)[C@H](n4nnc(N)n4)C5)C3=CC[C@@]2(C)[C@@H]1C(=O)O [Example 8, (1S,4aR,6aS,7R,8R,10aR,10bR,12aR,14R,15R)-14-(5-amino-2H-tetrazol-2-yl)-15-[[(2R)-2-(dimethylamino)-2,3-dimethylbutyl]oxy]-8-[(1R)-1,2-dimethylpropyl]-1,6,6a,7,8,9,10,10a,10b,11,12,12a-dodecahydro-1,6a,8,10a-tetramethyl-4H-1,4 a-propano-2H-phenanthro[1,2-c]pyran-7-carboxylic acid] | 13.2
CC(C)[C@@H](C)[C@@]1(C)CC[C@]2(C)[C@H]3CC[C@@H]4[C@@]5(COC[C@@]4(C)[C@@H](OC[C@](C)(N)C(C)C)[C@H](n4nnnc4N)C5)C3=CC[C@@]2(C)[C@@H]1C(=O)O [Example 9, (1S,4aR,6aS,7R,8R,10aR,10bR,12aR,14R,15R)-15-[[(2R)-2-amino-2,3-dimethylbutyl]oxy]-14-(5-amino-1H-tetrazol-1-yl)-8-[(1R)-1,2-dimethylpropyl]-1,6,6a,7,8,9,10,10a,10b,11,12,12a-dodecahydro-1,6a,8,10a-tetramethyl-4H-1,4a-propano-2H-phenanthro[1,2-c]pyran-7-carboxylic acid] | 56.5
CC(C)[C@@H](C)[C@@]1(C)CC[C@]2(C)[C@H]3CC[C@@H]4[C@@]5(COC[C@@]4(C)[C@@H](OC[C@](C)(C(C)C)N4CCCCC4)[C@H](n4nnc(N)n4)C5)C3=CC[C@@]2(C)[C@@H]1C(=O)O [Example 11, (1S,4aR,6aS,7R,8R,10aR,10bR,12aR,14R,15R)-14-(5-amino-2H-tetrazol-2-yl)-15-[[(2S)-2,3-dimethyl-2-(1-piperidinyl)butyl]oxy]-8-[(1R)-1,2-dimethylpropyl]-1,6,6a,7,8,9,10,10a,10b,11,12,12a-dodecahydro-1,6a,8,10a-tetramethyl-4H-1,4a-propano-2H-phenanthro[1,2-c]pyran-7-carboxylic acid] | 78.8
CC(C)[C@@H](C)[C@@]1(C)CC[C@]2(C)[C@H]3CC[C@@H]4[C@@]5(COC[C@@]4(C)[C@@H](OC[C@](C)(NCCCO)C(C)C)[C@H](n4nnc(N)n4)C5)C3=CC[C@@]2(C)[C@@H]1C(=O)O [Example 13, (1S,4aR,6aS,7R,8R,10aR,10bR,12aR,14R,15R)-14-(5-amino-2H-tetrazol-2-yl)-8-[(1R)-1,2-dimethylpropyl]-15-[[(2R)-2-[(3-hydroxypropyl)amino]-2,3-dimethylbutyl]oxy]-1,6,6a,7,8,9,10,10a,10b,11,12,12a-dodecahydro-1,6a,8,10a-tetramethyl-4H-1,4a-propano-2H-phenanthro[1,2-c]pyran-7-carboxylic acid] | 2.8
CCN[C@@](C)(CO[C@H]1[C@H](n2nnc(N)n2)C[C@@]23COC[C@]1(C)[C@@H]2CC[C@H]1C3=CC[C@@]2(C)[C@H](C(=O)O)[C@@](C)([C@H](C)C(C)C)CC[C@]12C)C(C)(C)C [Example 20, (1S,4aR,6aS,7R,8R,10aR,10bR,12aR,14R,15R)-14-(5-amino-2H-tetrazol-2-yl)-8-[(1R)-1,2-dimethylpropyl]-15-[[(2R)-2-(ethylamino)-2,3,3-trimethylbutyl]oxy]-1,6,6a,7,8,9,10,10a,10b,11,12,12a-dodecahydro-1,6a,8,10a-tetramethyl-4H-1,4a-propano-2H-phenanthro[1,2-c]pyran-7-carboxylic acid] | 4.3
CCC(N)(CC)CO[C@H]1[C@H](n2nnc(N)n2)C[C@@]23COC[C@]1(C)[C@@H]2CC[C@H]1C3=CC[C@@]2(C)[C@H](C(=O)O)[C@@](C)([C@H](C)C(C)C)CC[C@]12C [Example 23, (1S,4aR,6aS,7R,8R,10aR,10bR,12aR,14R,15R)-15-(2-amino-2-ethylbutoxy)-14-(5-amino-2H-tetrazol-2-yl)-8-[(1R)-1,2-dimethylpropyl]-1,6,6a,7,8,9,10,10a,10b,11,12,12a-dodecahydro-1,6a,8,10a-tetramethyl-4H-1,4a-propano-2H-phenanthro[1,2-c]pyran-7-carboxylic acid] | 7.63

Now from value to compound:

IC50 [nM] | Compound
6.11 | CC(C)[C@@H](C)[C@@]1(C)CC[C@]2(C)[C@H]3CC[C@@H]4[C@@]5(COC[C@@]4(C)[C@@H](OC[C@H](N)C(C)(C)C)[C@H](n4nnc(N)n4)C5)C3=CC[C@@]2(C)[C@@H]1C(=O)O [Example 22, (1S,4aR,6aS,7R;8R,10aR,10bR,12aR,14R,15R)-15-[[(2R)-2-amino-3,3-dimethylbutyl]oxy]-14-(5-amino-2H-tetrazol-2-yl)-8-[(1R)-1,2-dimethylpropyl]-1,6,6a,7,8,9,10,10a,10b,11,12,12a-dodecahydro-1,6a,8,10a-tetramethyl-4H-1,4a-propano-2H-phenanthro[1,2-c]pyran-7-carboxylic acid]
40.5 | CC(C)[C@@H](C)[C@@]1(C)CC[C@]2(C)[C@H]3CC[C@@H]4[C@@]5(COC[C@@]4(C)[C@@H](OCCC4(N)CCCC4)[C@H](n4nnc(N)n4)C5)C3=CC[C@@]2(C)[C@@H]1C(=O)O [Example 25, (1S,4aR,6aS,7R,8R,10aR,10bR,12aR,14R,15R)-15-[2-(1-aminocyclopentyl)ethoxy]-14-(5-amino-2H-tetrazol-2-yl)-8-[(1R)-1,2-dimethylpropyl]-1,6,6a,7,8,9,10,10a,10b,11,12,12a-dodecahydro-1,6a,8,10a-tetramethyl-4H-1,4a-propano-2H-phenanthro[1,2-c]pyran-7-carboxylic acid]
5.86 | CNC1(CO[C@H]2[C@H](n3nnc(N)n3)C[C@@]34COC[C@]2(C)[C@@H]3CC[C@H]2C4=CC[C@@]3(C)[C@H](C(=O)O)[C@@](C)([C@H](C)C(C)C)CC[C@]23C)CCOCC1 [Example 27, (1S,4aR,6aS,7R,8R,10aR,10bR,12aR,14R,15R)-14-(5-amino-2H-tetrazol-2-yl)-8-[(1R)-1,2-dimethylpropyl]-15-[[tetrahydro-4-(methylamino)-2H-pyran-4-yl]methoxy]-1,6,6a,7,8,9,10,10a,10b,11,12,12a-dodecahydro-1,6a,8,10a-tetramethyl-4H-1,4a-propano-2H-phenanthro[1,2-c]pyran-7-carboxylic acid]
2.92 | CC(C)[C@@H](C)[C@@]1(C)CC[C@]2(C)[C@H]3CC[C@@H]4[C@@]5(COC[C@@]4(C)[C@@H](OCC4(N)CCSCC4)[C@H](n4nnc(N)n4)C5)C3=CC[C@@]2(C)[C@@H]1C(=O)O [Example 30, (1S,4aR,6aS,7R,8R,10aR,10bR,12aR,14R,15R)-15-[(4-aminotetrahydro-2H-thiopyran-4-yl)methoxy]-14-(5-amino-2H-tetrazol-2-yl)-8-[(1R)-1,2-dimethylpropyl]-1,6,6a,7,8,9,10,10a,10b,11,12,12a-dodecahydro-1,6a,8,10a-tetramethyl-4H-1,4a-propano-2H-phenanthro[1,2-c]pyran-7-carboxylic acid]
